Experimental data published in patent US20110014285A1, “N-ACETYL CYSTEINE COMPOSITIONS AND METHODS TO IMPROVE THE THERAPEUTIC EFFICACY OF ACETAMINOPHEN” (priority 2009, published 2011).

What was measured:
[1] = NAC thiol/disulfide pair; Noszal et al. (2000); cited from earlier work
fever = assay: Control of fever refractory to acetaminophen in a pediatric patient; assay type: in vivo, human; conditions: standard maximum daily dose of acetaminophen
Description: A pediatric patient receives a standard maximum daily dose of acetaminophen to control a fever, but the acetaminophen is ineffective. The patient receives the same standard maximum daily dose of acetaminophen in the form of an acetaminophen-N-acetylcysteine composition.

[2] = in vivo; cited from earlier work
dogs = conditions: cited from earlier work
humans = conditions: cited from earlier work
felines = felines (cat family); cited from earlier work
[3] = effects counter to those reported for NAC; Samstrand et al (1999); cited from earlier work

CC(=O)N[C@@H](CS)C(=O)O [NAC, N-acetylcysteine]
half-cell potential [1]: about +63 mV

CC(=O)Nc1ccc(O)cc1 [acetaminophen, N-acetyl-para-aminophenol]
control of fever (fever): ineffective
binding to protein [2]: only slightly
volume of distribution [2]: 0.9 to 1.0 L/kg
dose at which toxicity is documented (dogs): > 40 mg/kg
dose at which toxicity is documented (humans): > 140 mg/kg
dose at which toxicity and death were demonstrated (felines): 5 to 10 mg/kg

CC(=O)N[C@@H](CSSC[C@H](NC(C)=O)C(=O)O)C(=O)O [oxidized form of NAC]
bioactive dose relative to NAC [3]: 10-100 fold less than NAC
